Assay results published in the CheMixHub ionic liquid set.

Assay: xn = mol fraction of the nth substance listed
Conditions: 101 kPa

Cc1ncc(C[n+]2csc(CCO)c2C)c(N)n1.Cl.[Cl-] + CCCCCCCCCCCCOS(=O)(=O)[O-].[Na+] + O
electrical conductivity [S/m]
Conditions | 288.15 K | 298.15 K
x2 = 0, x1 = 1.8e-07 | 0.00237 | 0.00291
x2 = 0, x1 = 9e-07 | 0.0045 | 0.00489
x2 = 0, x1 = 1.8e-06 | 0.00578 | 0.00788
x2 = 7.35e-06, x1 = 1.8e-07 | 0.00538 | 0.00635
x2 = 7.35e-06, x1 = 9e-07 | 0.0077 | 0.00839
x2 = 7.35e-06, x1 = 1.8e-06 | 0.00928 | 0.0119
x2 = 1.463e-05, x1 = 1.8e-07 | 0.00837 | 0.0099
x2 = 1.463e-05, x1 = 9e-07 | 0.0109 | 0.0118
x2 = 1.463e-05, x1 = 1.8e-06 | 0.0127 | 0.0158
x2 = 2.18e-05, x1 = 1.8e-07 | 0.0112 | 0.0131
x2 = 2.18e-05, x1 = 9e-07 | 0.0139 | 0.0152
x2 = 2.18e-05, x1 = 1.8e-06 | 0.016 | 0.0196
x2 = 2.901e-05, x1 = 1.8e-07 | 0.0139 | 0.0163
x2 = 2.901e-05, x1 = 9e-07 | 0.0169 | 0.0186
x2 = 2.901e-05, x1 = 1.8e-06 | 0.0192 | 0.0233
x2 = 3.604e-05, x1 = 1.8e-07 | 0.0167 | 0.0196
x2 = 3.604e-05, x1 = 9e-07 | 0.0197 | 0.0219
x2 = 3.604e-05, x1 = 1.8e-06 | 0.0224 | 0.027
x2 = 4.307e-05, x1 = 1.8e-07 | 0.0194 | 0.0228
x2 = 4.307e-05, x1 = 9e-07 | 0.0225 | 0.0251
x2 = 4.307e-05, x1 = 1.8e-06 | 0.0255 | 0.0308
x2 = 4.991e-05, x1 = 1.8e-07 | 0.0221 | 0.026
x2 = 4.991e-05, x1 = 9e-07 | 0.0253 | 0.0282
x2 = 4.991e-05, x1 = 1.8e-06 | 0.0285 | 0.0347
x2 = 5.676e-05, x1 = 1.8e-07 | 0.0248 | 0.0292
x2 = 5.676e-05, x1 = 9e-07 | 0.0281 | 0.0312
x2 = 5.676e-05, x1 = 1.8e-06 | 0.0314 | 0.0384
x2 = 6.361e-05, x1 = 1.8e-07 | 0.0274 | 0.0323
x2 = 6.361e-05, x1 = 9e-07 | 0.0307 | 0.0342
x2 = 6.361e-05, x1 = 1.8e-06 | 0.0342 | 0.0421
x2 = 7.027e-05, x1 = 1.8e-07 | 0.0299 | 0.0354
x2 = 7.027e-05, x1 = 9e-07 | 0.0332 | 0.0372
x2 = 7.028e-05, x1 = 1.8e-06 | 0.037 | 0.0457
x2 = 7.694e-05, x1 = 1.8e-07 | 0.0324 | 0.0385
x2 = 7.694e-05, x1 = 9e-07 | 0.0357 | 0.0402
x2 = 7.694e-05, x1 = 1.8e-06 | 0.0397 | 0.0492
x2 = 8.361e-05, x1 = 1.8e-07 | 0.0349 | 0.0414
x2 = 8.361e-05, x1 = 9e-07 | 0.0382 | 0.0431
x2 = 8.361e-05, x1 = 1.8e-06 | 0.0425 | 0.0526
x2 = 9.009e-05, x1 = 1.8e-07 | 0.0374 | 0.0443
x2 = 9.009e-05, x1 = 9e-07 | 0.0407 | 0.046
x2 = 9.009e-05, x1 = 1.8e-06 | 0.0452 | 0.0557
x2 = 9.658e-05, x1 = 1.8e-07 | 0.0398 | 0.0471
x2 = 9.658e-05, x1 = 9e-07 | 0.0431 | 0.0489
x2 = 9.658e-05, x1 = 1.8e-06 | 0.0478 | 0.0587
x2 = 0.0001031, x1 = 1.8e-07 | 0.0422 | 0.0498
x2 = 0.0001031, x1 = 9e-07 | 0.0456 | 0.0518
x2 = 0.0001031, x1 = 1.8e-06 | 0.0503 | 0.0616
x2 = 0.0001094, x1 = 1.8e-07 | 0.0446 | 0.0524
x2 = 0.0001094, x1 = 9e-07 | 0.048 | 0.0545
x2 = 0.0001094, x1 = 1.8e-06 | 0.0522 | 0.0643
x2 = 0.0001157, x1 = 1.8e-07 | 0.0465 | 0.0549
x2 = 0.0001157, x1 = 9e-07 | 0.0502 | 0.0571
x2 = 0.0001157, x1 = 1.8e-06 | 0.0539 | 0.0668
x2 = 0.000122, x1 = 1.8e-07 | 0.0486 | 0.0574
x2 = 0.000122, x1 = 9e-07 | 0.0523 | 0.0595
x2 = 0.000122, x1 = 1.8e-06 | 0.0555 | 0.0691
x2 = 0.0001281, x1 = 1.8e-07 | 0.0508 | 0.0597
x2 = 0.0001281, x1 = 9e-07 | 0.0541 | 0.0615
x2 = 0.0001281, x1 = 1.8e-06 | 0.0571 | 0.0712
x2 = 0.0001342, x1 = 1.8e-07 | 0.0527 | 0.0619
x2 = 0.0001342, x1 = 9e-07 | 0.0558 | 0.0635
x2 = 0.0001342, x1 = 1.8e-06 | 0.0587 | 0.0732
x2 = 0.0001404, x1 = 1.8e-07 | 0.0545 | 0.0639
x2 = 0.0001404, x1 = 9e-07 | 0.0573 | 0.0653
x2 = 0.0001404, x1 = 1.8e-06 | 0.0601 | 0.0751
x2 = 0.0001465, x1 = 1.8e-07 | 0.0561 | 0.0656
x2 = 0.0001465, x1 = 9e-07 | 0.0587 | 0.0669
x2 = 0.0001465, x1 = 1.8e-06 | 0.0614 | 0.077
x2 = 0.0001524, x1 = 1.8e-07 | 0.0577 | 0.0672
x2 = 0.0001524, x1 = 9e-07 | 0.0599 | 0.0685
x2 = 0.0001524, x1 = 1.8e-06 | 0.0625 | 0.0789
x2 = 0.0001584, x1 = 1.8e-07 | 0.059 | 0.0687
x2 = 0.0001584, x1 = 9e-07 | 0.0611 | 0.0699
x2 = 0.0001584, x1 = 1.8e-06 | 0.0636 | 0.0807
x2 = 0.0001641, x1 = 1.8e-07 | 0.0602 | 0.07
x2 = 0.0001641, x1 = 9e-07 | 0.0622 | 0.0712
x2 = 0.0001641, x1 = 1.8e-06 | 0.0647 | 0.0825
x2 = 0.0001699, x1 = 1.8e-07 | 0.0613 | 0.0712
x2 = 0.0001699, x1 = 9e-07 | 0.0633 | 0.0724
x2 = 0.0001699, x1 = 1.8e-06 | 0.0657 | 0.0842
x2 = 0.0001757, x1 = 1.8e-07 | 0.0622 | 0.0724
x2 = 0.0001757, x1 = 9e-07 | 0.0643 | 0.0736
x2 = 0.0001757, x1 = 1.8e-06 | 0.0667 | 0.0857
x2 = 0.0001814, x1 = 1.8e-07 | 0.0632 | 0.0735
x2 = 0.0001814, x1 = 9e-07 | 0.0654 | 0.0748
x2 = 0.0001814, x1 = 1.8e-06 | 0.0677 | 0.0872
x2 = 0.000187, x1 = 1.8e-07 | 0.0641 | 0.0745
x2 = 0.000187, x1 = 9e-07 | 0.0664 | 0.076
x2 = 0.000187, x1 = 1.8e-06 | 0.0687 | 0.0885
x2 = 0.0001928, x1 = 1.8e-07 | 0.0649 | 0.0755
x2 = 0.0001928, x1 = 9e-07 | 0.0673 | 0.0771
x2 = 0.0001928, x1 = 1.8e-06 | 0.0697 | 0.0898
x2 = 0.0001982, x1 = 1.8e-07 | 0.0658 | 0.0765
x2 = 0.0001982, x1 = 9e-07 | 0.0683 | 0.0782
x2 = 0.0001982, x1 = 1.8e-06 | 0.0707 | 0.0911
x2 = 0.0002038, x1 = 1.8e-07 | 0.0666 | 0.0775
x2 = 0.0002038, x1 = 9e-07 | 0.0692 | 0.0794
x2 = 0.0002038, x1 = 1.8e-06 | 0.0716 | 0.0924
x2 = 0.0002092, x1 = 1.8e-07 | 0.0673 | 0.0784
x2 = 0.0002092, x1 = 9e-07 | 0.0702 | 0.0805
x2 = 0.0002092, x1 = 1.8e-06 | 0.0725 | 0.0937
x2 = 0.0002147, x1 = 1.8e-07 | 0.0681 | 0.0793
x2 = 0.0002148, x1 = 9e-07 | 0.0711 | 0.0816
x2 = 0.0002148, x1 = 1.8e-06 | 0.0734 | 0.0949
x2 = 0.00022, x1 = 1.8e-07 | 0.0689 | 0.0802
x2 = 0.00022, x1 = 9e-07 | 0.072 | 0.0826
x2 = 0.00022, x1 = 1.8e-06 | 0.0743 | 0.0961
x2 = 0.0002254, x1 = 1.8e-07 | 0.0696 | 0.081
x2 = 0.0002254, x1 = 9e-07 | 0.0729 | 0.0837
x2 = 0.0002254, x1 = 1.8e-06 | 0.0752 | 0.0973
x2 = 0.0002306, x1 = 1.8e-07 | 0.0703 | 0.0819
x2 = 0.0002306, x1 = 9e-07 | 0.0739 | 0.0848
x2 = 0.0002306, x1 = 1.8e-06 | 0.0761 | 0.0983
x2 = 0.0002358, x1 = 1.8e-07 | 0.071 | 0.0827
x2 = 0.0002358, x1 = 9e-07 | 0.0747 | 0.0858
x2 = 0.0002358, x1 = 1.8e-06 | 0.077 | 0.0993
x2 = 0.0002411, x1 = 1.8e-07 | 0.0717 | 0.0836
x2 = 0.0002411, x1 = 9e-07 | 0.0756 | 0.0869
x2 = 0.0002411, x1 = 1.8e-06 | 0.0778 | 0.1
